Values after ≈ are worked out from the molar mass of the structure shown.
Assays:
TNF-α = assay: P. acnes-induced TNF-α protein on human PBMCs (ELISA); assay type: cell-based; conditions: PBMCs + live P. acnes 1:1, test material 30 PM, 24 hours
Description: (§1) Cryopreserved human Peripheral Blood Mononuclear cells (PBMCs) from healthy adult donors were obtained from Zen Bio, Inc (Cat No. SER-PBMC-F). Cells were cultured in 12-well plates with lymphocyte media (Cat No. LYMPH-1) and incubated with test materials ([…]) and live P. acnes (ATCC® 6919TM) at 1:1 PBMC: P. acnes bacteria ratio for 24 hours at 37° C. and 5% CO2. After incubation, cell media supernatants were harvested and used to measure pro-inflammatory cytokine levels (IL-8, TNF-α, IL-1b, IL-17) using ELISA kits (BD Biosciences® #557966, #555212, #555244; R&D Systems® #DY317). Total RNA was extracted from cells using the RNAqueous® kit (Ambion®; Cat No. 1912) and cDNA was obtained using the High Capacity RNA-to-cDNA kit (Applied Biosystems®; Cat No. 4387406). Quantitative PCR (qPCR) was performed using the TaqMan® Fast Advanced Master Mix (Applied Biosystems®; Cat No. 4444556) and specific TaqMan®-probes human gene primers CXCL8 (IL-8), IL1B (IL-1b), TNF (TNF-α), IL17A (IL-17A) and GAPDH to calculate the relative gene fold expression change per treatment. Gene expression analysis was performed using the comparative Ct method (also known as the 2-[delta][delta]Ct) approach by comparing the Ct values of P. acnes-only treated cells with the untreated samples and normalized to GAPDH gene expression as endogenous housekeeping gene.

IL-1b = assay: P. acnes-induced IL-1b protein on human PBMCs (ELISA); assay type: cell-based; conditions: PBMC, PBMCs + live P. acnes 1:1, test material 30 PM, 24 hours
Description: as §1

DEFB4B (hBD2) = assay: NHEK antimicrobial peptide gene expression, hBD2; assay type: cell-based, human; conditions: 10 μM, 24 hours, qPCR, normalized to GAPDH
Description: (§2) Normal human epidermal keratinocytes (NHEKs) from neonatal donors were obtained from Thermo-Fisher (Cat No. C-001-5C). Cells were cultured in 6-well plates for 24 hours before treatments with EpiLife media (Cat No. MEPI500CA) supplemented with keratinocytes growth supplement (Cat No. 50015). On Day 2, media was removed and incubated with test materials (10 μM) for 24 hours at 37° C. and 5% CO2. On Day 3, total RNA was extracted from cells using the RNAqueous® kit (Ambion®; Cat No. 1912) and cDNA was obtained using the High Capacity RNA-to-cDNA kit (Applied Biosystems®; Cat No. 4387406). Quantitative PCR (qPCR) was performed using the TaqMan® Fast Advanced Master Mix (Applied Biosystems®; Cat No. 4444556) and specific TaqMan®-probes human gene primers DEFB4B (hBD2), DEFB103 (hBD3), HCAP18 and GAPDH to calculate the relative gene fold expression change per treatment. Gene expression analysis was performed using the comparative Ct method (also known as the 2-[delta][delta]Ct) approach by comparing the Ct values of the treated samples with the untreated samples and normalized to GAPDH gene expression as endogenous housekeeping gene. Results were represented as fold-expression/untreated cells.

IL-8 [1] = assay: P. acnes-induced IL-8 protein on human PBMCs (ELISA); assay type: cell-based; conditions: PBMCs + live P. acnes 1:1, test material 30 PM, 24 hours
Description: as §1

P. acnes (ATCC 6919) [2] = assay: Minimal inhibitory concentration (MIC) against P. acnes; assay type: cell-based, Propionibacterium acnes; conditions: Cutibacterium acnes, ATCC6919, 72 h, P. acnes ATCC 6919, 10^6 CFU/mL, read-out: MIC
Description: To determine minimal inhibitory concentration (MIC), reagents were dissolved in vehicle (5% v/v) and then added to bacteria suspension. P. acnes (ATCC® 6919TM) at 10^6 CFU/mL was incubated with test materials at the concentrations of two-fold serial dilution (0.25-500 μg/mL) and incubated for 72 hours (P. acnes).

[3] = system: P. acnes (ATCC 6919) biofilms; assay: P. acnes biofilm eradication (MBEC), crystal violet; assay type: cell-based, Propionibacterium acnes; conditions: 24 hours, ≥80% eradication vs vehicle
Description: P. acnes (ATCC® 6919™) was cultured as described above. Bacteria biofilms were established by seeding P. acnes cultures in 96-well plates and incubating for 24 hours without agitation. Later, biofilms were incubated with test materials for 24 hours. Remaining biofilms were washed and stained with crystal violet. […] The absorbance was measured at 595 nm in a microplate reader. […] Results from disk diffusion susceptibility testing (Kirby-Bauer Method) after 72 hours incubation were also obtained.

IL-8 [4] = assay: Peptidoglycan (PGN)-induced IL-8 on NHEKs; assay type: cell-based, human; conditions: Homo sapiens; NHEK, PGN 10 μg/mL, 24 hours, ELISA; read-out: PGN-NHEK 1L-8 Protein IC50
Description: (§3) Normal human epidermal keratinocytes (NHEKs) from neonatal donors were obtained from Thermo-Fisher (Cat No. C-001-5C). Cells were cultured in 96-well plates for 24 hours with EpiLife media (Cat No. MEPI500CA) supplemented with keratinocytes growth supplement (Cat No. S0015). On Day 2, media was removed and replaced with supplement-depleted medium for 24 hours. On Day 3, media was removed and cells were pre-treated with test materials (≤1 μM) for 2 hours and later co-treated with test materials and PGN (Sigma Aldrich, Cat No. 77140) at 10 μg/mL and incubated for 24 hours at 37° C. and 5% CO2. PGN is a TLR-2 agonist. After incubation, cell media supernatants were harvested and used to measure pro-inflammatory cytokine levels (IL-8) using ELISA kit (BD Biosciences® #555244). Results were represented as percent of inhibition relative to untreated and PGN-only treated cells. IC50 values were determined by non-linear regression analysis using the four-parameter logistic equation.

P. acnes (ATCC 6919) [5] = assay: Minimal bactericidal concentration (MBC) against P. acnes; assay type: cell-based, Propionibacterium acnes; conditions: Cutibacterium acnes, ATCC6919; P. acnes 10^7 CFU/mL, in PBS, anaerobic conditions
HCAP18 = assay: NHEK antimicrobial peptide gene expression, hCAP18; assay type: cell-based, human; conditions: 10 μM, 24 hours, qPCR, normalized to GAPDH
Description: as §2

IL-17 = assay: P. acnes-induced IL-17 protein on human PBMCs (ELISA); assay type: cell-based; conditions: PBMC, PBMCs + live P. acnes 1:1, test material 30 PM, 24 hours
Description: as §1

DEFB103 (hBD3) = assay: NHEK antimicrobial peptide gene expression, hBD3; assay type: cell-based, human; conditions: 10 μM, 24 hours, qPCR, normalized to GAPDH
Description: as §2

IL-8 [6] = assay: TPA-induced IL-8 on NHEKs; assay type: cell-based; conditions: Homo sapiens; NHEK, TPA 5 ng/mL, 24 hours, ELISA
Description: as §3, with “TPA” for “PGN”, “P8139)” for “77140)”, “5 ng/mL” for “10 μg/mL”, “CO2.” for “CO2. PGN is a TLR-2 agonist.”, “TPA-only” for “PGN-only”

IL-13 = assay: Concanavalin-A-induced IL-13 on PBMCs; assay type: cell-based; conditions: Homo sapiens, PBMC, ConA, 24 hours, ELISA
Balb/C mice = assay: Oxazolone-induced delayed-type hypersensitivity (DTH) in vivo model; conditions: Mus musculus, topical @1%, 24 hours, read-out: Edema % inhibition
Description: Inbred male Balb/C mice were purchased from Hilltop Lab Animals (Scottdale, PA) and were used between 8 and 10 weeks of age. Mice backs were shaved and 100 μl of 3% v/v Oxazolone (Sigma Aldrich, Cat No. E0753) in acetone/olive oil (4:1) was applied to dorsal skin for sensitization. On Day 7, ears were challenged with 0.5% v/v Oxazolone and 30 minutes after challenge, test materials at 3% w/v were applied to ears (10 μl applied both to the dorsal and ventral surfaces of the mouse ear using a solvent pipette) and 24 hours later, skin thickness (edema) was measured. A 6-mm punch biopsy was obtained from each ear, snap frozen in liquid nitrogen. Ear skin biopsy punches were pulverized using FastPrep®-24 Biopulverizer (MP Biomedical, CatNo. 116004500) and Lysing Matrix A tubes (CatNo. 16910050). Protein extracts were obtained using 500 μL/tissue of cold T-PER buffer (ThermoFisher, CatNo. 78510) with Protease inhibitors (Sigma-Aldich, CatNo. 58820-20TAB). Soluble protein fractions were used to measure cytokine levels (IL-4) using ELISA kit (BD Biosciences® #555232). Results were represented as percent of inhibition relative to unsensitized and sensitized-only treated animals. Vehicle for presently disclosed compounds was 60:40 H2O:EtOH and 1:1 Acetone:EtOH for AN2718. (n=5-15 animals per treatment group).
Compound C was further analyzed at various dosages against 0.4 mg/ear of […] by the above protocol, data representing the average±S.E. of cumulative data from three independent experiments (n=12-15 mice per group) is shown below: […]

IL-31 = assay: Anti-CD3/CD28+IL-4-induced IL-31 on PBMCs; assay type: cell-based; conditions: Homo sapiens, PBMC, anti-CD3/CD28 beads + 50 ng/mL IL-4, 48 hours, ELISA, read-out: TCR/IL-4-PBMCs IL-31 IC50
Description: Cryopreserved human Peripheral Blood Mononuclear cells (PBMCs) from healthy adult donors were obtained from Zen Bio, Inc (Cat No. SER-PBMC-F). Cells were cultured in 96-well plates with lymphocyte media (Cat No. LYMPH-1) and were pre-treated with test materials (≤100 μM) for 2 hours and later co-treated with test materials and anti-CD3/CD28 beads (Thermo-Fisher; Cat No. 11131D) and 50 ng/mL recombinant human IL-4 (R&D Systems® #204-IL) for 48 hours at 37° C. and 5% CO2. After incubation, cell media supernatants were harvested and used to measure cytokine levels (IL-22, IL-31) using ELISA kits (R&D Systems® #DY782, #DY2824). Results were represented as percent of inhibition relative to untreated and anti-CD3/CD28+IL-4 only treated cells. IC50 values were determined by non-linear regression analysis using the four-parameter logistic equation.

Swiss Webster (ICR) mice = assay: TPA-induced skin irritation in vivo model (mouse ear); conditions: topical @ 1% w/v, 24 hour
Description: Outbred male Swiss Webster (ICR) mice were purchased from Hilltop Lab Animals (Scottdale, PA) and were used between 10 and 12 weeks of age and we followed a similar protocol previously described (Gordon et al., 2008). Mice received 1.2 μg/20 μl TPA dissolved in acetone (10 μl applied both to the dorsal and ventral surfaces of the mouse ear using a solvent pipette) to each ear to induce acute irritation (6 per group). Test Materials were co-treated with TPA or applied 5 minutes after TPA dose, at various concentrations (0.6 to 800 μg/20 μl) in ethanol. After 24 hour treatment, edema was measured by ear thickness.

[7] = system: subjects with mild to moderate acne; assay: 8-week clinical study in subjects with mild to moderate acne; assay type: in vivo; parameters: scale not given here; conditions: E 1% w/w, BPO 3% w/w, human
Excerpt: Subjects used the assigned product at home for 8 weeks. Subjects returned post baseline at week 2, 4 and 8. At each visit subjects underwent expert clinical grading and test site photography. […] The severity of acne signs and symptoms on the faces of >18 yo subjects were clinically assessed by IGA scale during an 8-week Study period. In addition, UV light mode was utilized to observe porphyrins fluorescence (orange-red dots).

Row | SMILES | TNFa-Protein % inhibition (TNF-α) [%] | inhibition at 30 pM (IL-1b) [%] | hBD2 gene expression (DEFB4B (hBD2)) | IL-8 Protein % inhibition (IL-8 [1]) [%] | MIC (P. acnes (ATCC 6919) [2]) [mg/L] | MBEC [3] | IC50 (IL-8 [4]) [µM] | MBC (P. acnes (ATCC 6919) [5]) [mg/L] | hCAP18 gene expression (HCAP18) | inhibition at 30 pM (IL-17) [%] | hBD3 gene expression (DEFB103 (hBD3)) | other results
1 | O=C(O)c1ccccc1O [Salicylic Acid, reference compound] | 0 | 40 | 1.0 Fold-expression/untreated cells | 0 | 1000 (≈ 7.24 mM) | >8000 μg/mL and (>57920) μM | > 1 | 2000 (≈ 14.5 mM) | 1.2 Fold-expression/untreated cells | 0 | 1.2 Fold-expression/untreated cells | 
2 | C=CC[C@@H]1/C=C(\C)C[C@H](C)C[C@H](OC)[C@H]2O[C@@](O)(C(=O)C(=O)N3CCCC[C@H]3C(=O)O[C@H](/C(C)=C/[C@@H]3CC[C@@H](O)[C@H](OC)C3)[C@H](C)[C@@H](O)CC1=O)[C@H](C)C[C@@H]2OC [FK506, reference compound] |  |  |  |  |  |  |  |  |  |  |  | IC50 (IL-8 [6]): 0.01 µM; IC50 (IL-13): 0.6 µM; inhibition in vivo at 1 % (Balb/C mice): 32%; IC50 (IL-31): 0.0004 µM; MPO (% inhibition) (Swiss Webster (ICR) mice): 81%; Edema (% inhibition) (Swiss Webster (ICR) mice; ear thickness): 0%
3 | O=C(OOC(=O)c1ccccc1)c1ccccc1 [Benzoyl Peroxide, reference compound] | 0 | 33 | 1.6 Fold-expression/untreated cells | 78 | 200 (≈ 0.826 mM) | 367 μg/mL and (1515) μM | > 1 | > 200 | 2.8 Fold-expression/untreated cells | 15 | 1.2 Fold-expression/untreated cells | Investigator Global Assesment (IGA) Scale ([7]; 2 week): 2; Investigator Global Assesment (IGA) Scale ([7]; 4 week): 1; Investigator Global Assesment (IGA) Scale ([7]; 8 week): 1; Investigator Global Assesment (IGA) Scale ([7]; Baseline): 3
